Experimental data published in ChEMBL document CHEMBL5316309, “Discovery of BAY-390, a Selective CNS Penetrant Chemical Probe as Transient Receptor Potential Ankyrin 1 (TRPA1) Antagonist” (J Med Chem, 2023).

Assays:
[1] = molecular target: Transient receptor potential cation channel subfamily A member 1 (Rattus norvegicus, UniProt Q6RI86); assay: Antagonist activity at rat TRPA1 channel expressed in CHO-K1 cells tagged with GCaMP6 by measuring calcium flux measured after 10 mins by FLIPR tetra analysis; assay type: cell-based
[2] = molecular target: T1, Transient receptor potential cation channel subfamily A member 1 (Homo sapiens, UniProt O75762); assay: Antagonist activity at human TRPA1 channel expressed in CHO-K1 cells tagged with GCaMP6 by measuring calcium flux measured after 10 mins by FLIPR tetra analysis; assay type: cell-based
[3] = molecular target: T1, Transient receptor potential cation channel subfamily A member 1; assay: Antagonist activity at human wildtype TRPA1 channel expressed in CHO-K1 cells tagged with GCaMP6 by measuring calcium flux measured after […] by FLIPR tetra analysis; assay type: cell-based
[4] = Lipophilicity, logD of compound; assay type: physicochemical; conditions: octanol/water
[5] = Mutagenecity in Salmonella typhimurium by Ames test; assay type: toxicity; conditions: salmonella sp.

Sequence of Transient receptor potential cation channel subfamily A member 1 (Rattus norvegicus, UniProt Q6RI86) (Q6RI86 whole entry): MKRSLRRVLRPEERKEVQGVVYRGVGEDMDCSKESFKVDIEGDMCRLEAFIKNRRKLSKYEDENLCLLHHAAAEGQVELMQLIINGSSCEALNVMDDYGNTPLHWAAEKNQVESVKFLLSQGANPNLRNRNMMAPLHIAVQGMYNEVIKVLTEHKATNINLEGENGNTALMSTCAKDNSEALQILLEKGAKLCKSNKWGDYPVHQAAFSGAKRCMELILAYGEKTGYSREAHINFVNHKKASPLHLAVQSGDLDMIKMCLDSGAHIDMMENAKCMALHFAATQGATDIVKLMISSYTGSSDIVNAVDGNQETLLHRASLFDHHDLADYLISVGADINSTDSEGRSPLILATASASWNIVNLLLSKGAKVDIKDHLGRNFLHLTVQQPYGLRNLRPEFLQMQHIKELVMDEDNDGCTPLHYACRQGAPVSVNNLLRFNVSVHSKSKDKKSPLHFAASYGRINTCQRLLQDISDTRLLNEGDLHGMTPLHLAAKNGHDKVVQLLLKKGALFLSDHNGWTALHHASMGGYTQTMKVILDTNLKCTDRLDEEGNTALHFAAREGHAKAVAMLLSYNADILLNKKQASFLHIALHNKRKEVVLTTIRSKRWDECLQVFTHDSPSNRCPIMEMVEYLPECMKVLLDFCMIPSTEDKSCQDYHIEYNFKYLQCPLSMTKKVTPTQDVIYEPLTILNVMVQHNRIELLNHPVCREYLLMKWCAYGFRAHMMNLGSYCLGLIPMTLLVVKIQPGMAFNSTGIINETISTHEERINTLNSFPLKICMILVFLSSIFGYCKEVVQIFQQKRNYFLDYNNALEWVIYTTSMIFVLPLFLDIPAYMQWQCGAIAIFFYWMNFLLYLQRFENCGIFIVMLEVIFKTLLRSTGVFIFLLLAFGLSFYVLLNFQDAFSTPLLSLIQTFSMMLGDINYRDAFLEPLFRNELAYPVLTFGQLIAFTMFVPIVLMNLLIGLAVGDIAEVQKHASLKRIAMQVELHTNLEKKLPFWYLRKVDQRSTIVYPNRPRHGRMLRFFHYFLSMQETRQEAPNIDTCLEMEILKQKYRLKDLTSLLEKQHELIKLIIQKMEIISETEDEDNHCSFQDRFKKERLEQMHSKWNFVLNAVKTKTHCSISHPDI
T1 sequence (O75762 whole entry): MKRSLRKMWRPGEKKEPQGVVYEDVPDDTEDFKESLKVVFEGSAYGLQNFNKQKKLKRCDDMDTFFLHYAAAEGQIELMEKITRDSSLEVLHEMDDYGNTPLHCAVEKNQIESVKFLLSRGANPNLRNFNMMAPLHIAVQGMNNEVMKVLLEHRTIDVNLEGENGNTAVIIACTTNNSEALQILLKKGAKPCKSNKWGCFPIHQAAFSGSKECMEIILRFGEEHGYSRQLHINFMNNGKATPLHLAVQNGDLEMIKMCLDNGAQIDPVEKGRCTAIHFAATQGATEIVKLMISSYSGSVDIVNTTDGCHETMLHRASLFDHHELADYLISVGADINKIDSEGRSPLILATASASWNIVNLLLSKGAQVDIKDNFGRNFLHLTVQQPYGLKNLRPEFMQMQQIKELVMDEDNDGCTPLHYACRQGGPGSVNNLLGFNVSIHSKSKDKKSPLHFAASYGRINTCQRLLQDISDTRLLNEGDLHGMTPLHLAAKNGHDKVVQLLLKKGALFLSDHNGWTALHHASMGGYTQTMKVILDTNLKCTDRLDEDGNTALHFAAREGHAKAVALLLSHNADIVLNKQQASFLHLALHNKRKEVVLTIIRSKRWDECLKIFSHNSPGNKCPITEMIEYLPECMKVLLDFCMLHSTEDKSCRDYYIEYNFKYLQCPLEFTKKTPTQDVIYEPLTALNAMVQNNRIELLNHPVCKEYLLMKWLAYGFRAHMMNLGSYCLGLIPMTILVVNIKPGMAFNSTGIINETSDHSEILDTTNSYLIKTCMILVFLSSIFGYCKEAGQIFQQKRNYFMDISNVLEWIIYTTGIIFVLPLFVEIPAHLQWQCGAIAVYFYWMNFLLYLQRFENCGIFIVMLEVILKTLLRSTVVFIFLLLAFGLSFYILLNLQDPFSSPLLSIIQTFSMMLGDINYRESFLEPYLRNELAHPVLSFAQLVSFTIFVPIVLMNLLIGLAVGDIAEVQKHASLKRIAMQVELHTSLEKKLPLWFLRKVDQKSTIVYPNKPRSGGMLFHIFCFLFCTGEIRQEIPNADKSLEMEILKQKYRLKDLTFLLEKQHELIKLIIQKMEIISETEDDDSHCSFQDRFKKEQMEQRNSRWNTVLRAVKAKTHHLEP

CC1(C)CCCC(O)(C(F)(F)F)C1Cc1cccc(C#N)c1 (mixture of isomers)
IC50 [1]: 13 µM
IC50 [2]: 5.55 µM

COCCCOc1cccc([C@H]2NC(=S)Nc3c2oc2ncccc32)c1
IC50 [3]: 0.067 µM

COCCN(c1ccc(F)cc1)[C@@H]1CCCC[C@]1(O)C(F)(F)F (racemic)
IC50 [1]: 3.8 µM
logD [4]: 3.8

O=C1c2ccc(F)cc2CN1[C@@H]1CCCC[C@]1(O)C(F)(F)F
logD [4]: 2.6

CN(c1ccc(F)cc1)[C@@H]1CCCC[C@]1(O)C(F)(F)F
IC50 [1]: 21 µM
logD [4]: 3.9

O[C@]1(C(F)(F)F)CCCC[C@H]1Nc1ccc(Cl)cc1
IC50 [1]: 0.118 µM
Activity [5]: Toxic

CC1(C)CCCC(O)(C(F)(F)F)C1Cc1ccc(C#N)cc1 (mixture of isomers)
IC50 [1]: 7.57 µM
IC50 [2]: 0.39 µM

CC1(C)CCCC(O)(C(F)(F)F)C1Cc1cccc(F)c1 (mixture of isomers)
IC50 [1]: 3.8 µM
IC50 [2]: 0.75 µM

O=C(N[C@@H]1CCCC[C@]1(O)C(F)(F)F)c1ccc(F)cc1
IC50 [1]: 15 µM

CC1(C)CCCC(O)(C(F)(F)F)C1Cc1ccc(F)cc1F (mixture of isomers)
IC50 [1]: > 10 µM
IC50 [2]: 1 µM

N#Cc1ccc(N[C@@H]2CCCC[C@]2(O)C(F)(F)F)cc1
IC50 [1]: 1.3 µM
Activity [5]: Non-Toxic

O[C@]1(C(F)(F)F)CCCC[C@H]1N1CCc2cc(F)ccc21
IC50 [1]: 10 µM
logD [4]: 3.9

O[C@]1(C(F)(F)F)CCCC[C@H]1Nc1cccc(F)c1
IC50 [1]: 0.95 µM
Activity [5]: Non-Toxic

O[C@@]1(C(F)(F)F)CCCC[C@@H]1Cc1ccc(F)cc1
logD [4]: 3.8

COc1ccc(CC2C(C)(C)CCCC2(O)C(F)(F)F)cc1 (mixture of isomers)
IC50 [1]: > 12.5 µM
IC50 [2]: > 12.5 µM

O[C@]1(C(F)(F)F)CCCC[C@H]1Cc1ccc(Cl)nc1
IC50 [1]: 2.4 µM
logD [4]: 3

N#Cc1ccc(NC2CCCCC2(O)C(F)(F)F)cc1C(F)(F)F (racemic)
IC50 [1]: > 25 µM
Activity [5]: Non-Toxic
IC50 [2]: 19 µM

C[C@@H](C(=O)Nc1ccnc(-c2cnc(N3CCC[C@H]3C(F)(F)F)nc2)n1)n1cnc2c1c(=O)n(C)c(=O)n2C
IC50 [3]: 0.064 µM

O[C@]1(C(F)(F)F)CCCC[C@H]1Cc1ncc(Cl)s1
IC50 [1]: 1.2 µM

O[C@]1(C(F)(F)F)CCCC[C@H]1Cc1csc(Cl)c1
IC50 [1]: 0.13 µM
logD [4]: 4.3
